The inhibition is the relative decrease from the control value, in per cent. What is called IC50 is the concentration that gives 50% inhibition.

One experiment deals with VEGF induced increases in intracellular calcium levels in HUVEC (human umbilical vein endothelial cells). Description: VEGF Stimulated Ca++ Signal in vitro (FLIPR). Format: cell-based. As to conditions: 10 μM, VEGF 5 ng/mL. Here is the method:
VEGF Stimulated Ca^++ Signal in vitro
Automated FLIPR (Fluorometric Imaging Plate Reader) technology was used to screen for inhibitors of VEGF induced increases in intracellular calcium levels in fluorescent dye loaded endothelial cells. HUVEC (human umbilical vein endothelial cells) (Clonetics) were seeded in 96-well fibronectin coated black-walled plates overnight at 37° C./5%CO2. Cells were loaded with calcium indicator Fluo-4 for 45 minutes at 37° C. Cells were washed 4 times (Original Cell Wash, Labsystems) to remove extracellular dye. Test compounds were reconstituted in 100% DMSO and added to the cells to give a final DMSO concentration of 0.1%. For screening, cells were pre-incubated with test agents for 30 minutes, at a single concentration (10 μM) or at concentrations ranging from 0.01 to 10.0 μM followed by VEGF stimulation (5 ng/mL). Changes in fluorescence at 516 nm were measured simultaneously in all 96 wells using a cooled CCD camera. Data were generated by determining max-min fluorescence levels for unstimulated, stimulated, and drug treated samples. IC50 values for test compounds were calculated from % inhibition of VEGF stimulated responses in the absence of inhibitor.
Turning to `O=C1Nc2ccccc2C1=CNc1ccc(Oc2ccccc2)cc1` [Example 41, 3-[(4-Phenoxyamino)-methylene]-1,3-dihydro-indol-2-one], the “VEGF Stimulated Ca^++ signal assay % inhibition @ 10 μM” value was determined as 16.00%.

“4-[(2-Oxo-1,2-dihydro-indol-3-ylidenemethyl)-amino]-phospate [Example 84]”: the “VEGF Stimulated Ca^++ signal assay % inhibition @ 10 μM” value is given as 11.50%.

Turning to “5-Chloro-3-[(phenylamino)-methylene]-1,3-dihydro-indol-2-one benzothiazol-6-yl-amine [Example 101]”, the “VEGF Stimulated Ca^++ signal assay % inhibition @ 10 μM” value was 22.00%.

Regarding “3-[(Bis-trifluoromethyl-phenylamino)-methylene]-1,3-dihydro-indol-2-one [Example 46]”, the “VEGF Stimulated Ca^++ signal assay % inhibition @ 10 μM” value is reported as −4.00%.

Regarding “3-[(Fluoro-trifluoromethyl-phenylamino)-methylene]-1,3-dihydro-indol-2-one [Example 47]”, the “VEGF Stimulated Ca^++ signal assay % inhibition @ 10 μM” value is −2.50%.

“3-[(Chloro-trifluoromethyl-phenylamino)-methylene]-1,3-dihydro-indol-2-one [Example 45]”: the “VEGF Stimulated Ca^++ signal assay % inhibition @ 10 μM” value stood at 50.00%.

`CCOC(=O)c1ccc(NC=C2C(=O)Nc3ccccc32)cc1` [Example 8, 4-[(2-Oxo-1,3-dihydro-indol-3-ylididenemethyl)-amino]-benzoic acid ethyl ester]: the “VEGF Stimulated Ca^++ signal assay % inhibition @ 10 μM” value was found to be 9%.

As for “3-[(Methyl-trifluoromethyl-phenylamino)-methylene]-1,3-dihydro-indol-2-one [Example 56]”, the “VEGF Stimulated Ca^++ signal assay % inhibition @ 10 μM” value came to 21.00%.

Staying with this experiment, now noted: Homo sapiens, 10 μM, VEGF 5 ng/mL.
In the case of `CCc1cccc(NC=C2C(=O)Nc3ccc(Cl)cc32)c1` [Example 148, 5-Chloro-3-[(3-ethyl-phenylamino)-methylene]-1,3-dihydro-indol-2-one], the inhibition at 10 µM was 42.2%.

As for `O=C1Nc2ccc(Cl)cc2C1=CNc1ccccc1` [Example 74, 3-[(Phenylamino)-methylene]-5-chloro-1,3-dihydro-indol-2-one], the inhibition at 10 µM amounted to 44%.

Turning to `O=C1Nc2ccccc2C1=CNc1cccc(Br)c1` [Example 2, 3-[(3-Bromo-phenylamino)-methylene]-1,3-dihydro-indol-2-one], the inhibition at 10 µM was -0.5%.

Regarding `O=C1Nc2ccccc2C1=CNc1ccc(Cl)cc1F` [Example 24, 3-[(4-Chloro-2-fluoro-phenylamino)-methylene]-1,3-dihydro-indol-2-one], the inhibition at 10 µM is -13.5%.

`O=C1Nc2ccccc2C1=CNc1ccc2c(c1)OCO2` [Example 80, 3-[(3,4-Methylenedioxyphenylamino)-methylene]-1,3-dihydro-indol-2-one]: the inhibition at 10 µM amounted to 3.5%.

As to `Cc1cc(NC=C2C(=O)Nc3ccc(Cl)cc32)ccc1C(C)C` [Example 112, 5-Chloro-3-[(4-i-propyl-3-methylphenylamino)-methylene]-1,3-dihydro-indol-2-one], the inhibition at 10 µM worked out at 10.5%.

With `Cc1cc(NC=C2C(=O)Nc3cccc(C)c32)ccc1O` [Example 132, 3-[(4-Hydroxy-3-methyl-phenylamino)-methylene]-4-methyl-1,3-dihydro-indol-2-one], the inhibition at 10 µM amounted to 73%.

Consider `Cc1ccc(NC=C2C(=O)Nc3ccc(Cl)cc32)cc1C` [Example 69, 3-[(3,4-Dimethylphenylamino)-methylene]-5-chloro-1,3-dihydro-indol-2-one], for which the inhibition at 10 µM is -10.7%.

`Cc1ccc(NC=C2C(=O)Nc3ccc(Cl)cc32)cc1O` [Example 71, 3-[(3-Hydroxy-4-methylphenylamino)-methylene]-5-chloro-1,3-dihydro-indol-2-one]: the inhibition at 10 µM turned out to be 38.5%.

In the case of `O=C1Nc2ccc(Cl)cc2C1=CNc1ccc(O)cc1` [Example 77, 3-[(4-Hydroxyphenylamino)-methylene]-5-chloro-1,3-dihydro-indol-2-one], the inhibition at 10 µM came to 35%.

`Cc1cc(NC=C2C(=O)Nc3ccc(Cl)cc32)ccc1O` [Example 67, 3-[(3-Methyl-4-hydroxyphenylamino)-methylene]-5-chloro-1,3-dihydro-indol-2-one]: the inhibition at 10 µM was 19%.

Turning to `Cc1cc(C)cc(NC=C2C(=O)Nc3ccccc32)c1` [Example 19, 3-[(3,5-Dimethyl-phenylamino)-methylene]-1,3-dihydro-indol-2-one], the inhibition at 10 µM was 14%.

Turning to `Cc1ccc(NC=C2C(=O)Nc3ccc(Cl)cc32)cc1` [Example 79, 3-[(4-Methylphenylamino)-methylene]-5-chloro-1,3-dihydro-indol-2-one], the inhibition at 10 µM is -4%.

Turning to `Cc1cc(F)c(NC=C2C(=O)Nc3ccccc32)cc1OC(=O)OCC(C)(C)C` [Example 27, Carbonic acid 2,2-dimethyl-propyl ester 4-fluoro-2-methyl-5-[(2-oxo-1,2-dihydro-indol-3-ylidenemethyl)-amino]-phenyl ester], the inhibition at 10 µM was -9%.

On to `Cc1cccc2c1C(=CNc1ccc(C(=O)O)c(O)c1)C(=O)N2` [Example 155, 2-Hydroxy-4-[(4-methyl-2-oxo-1,2-dihydro-indol-3-ylidenemethyl)-amino]-benzoic acid], for which the inhibition at 10 µM amounted to 97.2%.

As for `O=C1Nc2ccccc2C1=CNc1ccc(O)c(Cl)c1` [Example 13, 3-[(3-Chloro-4-hydroxy-phenylamino)-methylene]-1,3-dihydro-indol-2-one], the inhibition at 10 µM is -12.5%.

For the compound `Cc1ccc(NC=C2C(=O)Nc3ccccc32)c(F)c1` [Example 53, 3-[(2-Fluoro-4-methyl-phenylamino)-methylene]-1,3-dihydro-indol-2-one], the inhibition at 10 µM was 2.5%.

In the case of `O=C1Nc2ccccc2C1=CNc1cc(O)c(Cl)cc1F` [Example 28, 3-[(4-Chloro-2-fluoro-5-hydroxy-phenylamino)-methylene]-1,3-dihydro-indol-2-one], the inhibition at 10 µM was determined as 32.5%.

Consider `O=C1Nc2ccccc2C1=CNc1ccc(Cl)cc1` [Example 36, 3-[(4-Chlorophenylamino)-methylene]-1,3-dihydro-indol-2-one], for which the inhibition at 10 µM came to 30%.

On to `COc1cc(NC=C2C(=O)Nc3ccc(Cl)cc32)c(OC)cc1Cl` [Example 104, 5-Chloro-3-[(4-chloro-2,5-dimethoxy-phenylamino)-methylene]-1,3-dihydro-indol-2-one], for which the inhibition at 10 µM was -14.5%.

As to `COC(=O)c1ccc(NC=C2C(=O)Nc3ccccc32)cc1OC` [Example 89, 2-Methoxy-4-[(2-oxo-1,2-dihydro-indol-3-ylidenemethyl)-amino]-benzoic acid methyl ester], the inhibition at 10 µM was 39.5%.

Turning to `O=C1Nc2ccc(Cl)cc2C1=CNc1ccc(OC(F)F)cc1` [Example 64, 3-[(4-Difluoromethoxyphenylamino)-methylene]-5-chloro-1,3-dihydro-indol-2-one], the inhibition at 10 µM turned out to be 37%.

As to `Cc1cc(NC=C2C(=O)Nc3ccccc32)ccc1O` [Example 133, 3-[(4-Hydroxy-3-methyl-phenylamino)-methylene]-1,3-dihydro-indol-2-one], the inhibition at 10 µM was 73%.

Take `Cc1cc(C)cc(NC=C2C(=O)Nc3cccc(C)c32)c1` [Example 63, 3-[(3,5-Dimethyl-phenylamino)-methylene]-4-methyl-1,3-dihydro-indol-2-one]: the inhibition at 10 µM was -14.5%.

For `Cc1cc(F)ccc1NC=C1C(=O)Nc2ccccc21` [Example 14, 3-[(4-Fluoro-2-methyl-phenylamino)-methylene]-1,3-dihydro-indol-2-one], the inhibition at 10 µM is -14%.

Consider `Cc1cc(NC=C2C(=O)Nc3ccccc32)ccc1Cl` [Example 54, 3-[(4-Chloro-3-methyl-phenylamino)-methylene]-1,3-dihydro-indol-2-one], for which the inhibition at 10 µM came to 40.5%.

Turning to `O=C1Nc2ccc(Cl)cc2C1=CNc1cccc(O)c1` [Example 76, 3-[(3-Hydroxyphenylamino)-methylene]-5-chloro-1,3-dihydro-indol-2-one], the inhibition at 10 µM worked out at 55.5%.

With `Cc1ccc(NC=C2C(=O)Nc3cccc(C)c32)cc1` [Example 62, 4-Methyl-3-(p-tolylamino-methylene)-1,3-dihydro-indol-2-one], the inhibition at 10 µM turned out to be 33%.

Still in this experiment, the particulars now being: Homo sapiens, 0.01 to 10.0 μM, VEGF 5 ng/mL.
For `O=C1Nc2ccc(Cl)cc2C1=CNc1ccc(CCCCN2CCCCC2)cc1` [Example 319, 5-Chloro-3-{[4-(4-piperidin-1-yl-butyl)-phenylamino]-methylene}-1,3-dihydro-indol-2-one], the IC50 amounted to 950 nM.

Take `O=C1Nc2cccc(F)c2C1=CNc1ccc(CCCCN2CCOCC2)cc1` [Example 315, 4-Fluoro-3-{[4-(4-morpholin-4-yl-butyl)-phenylamino]-methylene}-1,3-dihydro-indol-2-one]: the IC50 was 1540 nM.

As for `Cc1cc(NC=C2C(=O)Nc3cccc(C)c32)ccc1O` [Example 132, 3-[(4-Hydroxy-3-methyl-phenylamino)-methylene]-4-methyl-1,3-dihydro-indol-2-one], the IC50 worked out at 7380 nM.

Regarding `O=C1Nc2ccc(Cl)cc2C1=CNc1ccc(CCCCN2CCOCC2)cc1` [Example 313, 5-Chloro-3-{[4-(4-morpholin-4-yl-butyl)-phenylamino]-methylene}-1,3-dihydro-indol-2-one], the IC50 is 990 nM.

Take `Cc1cccc2c1C(=CNc1ccc(C(=O)O)c(O)c1)C(=O)N2` [Example 155, 2-Hydroxy-4-[(4-methyl-2-oxo-1,2-dihydro-indol-3-ylidenemethyl)-amino]-benzoic acid]: the IC50 stood at 2600 nM.

Turning to `Cc1cccc2c1C(=CNc1ccc(CCCCN3CCOCC3)cc1)C(=O)N2` [Example 314, 4-Methyl-3-{[4-(4-morpholin-4-yl-butyl)-phenylamino]-methylene}-1,3-dihydro-indol-2-one], the IC50 turned out to be 320 nM.

In the case of `Cc1cc(NC=C2C(=O)Nc3ccccc32)ccc1O` [Example 133, 3-[(4-Hydroxy-3-methyl-phenylamino)-methylene]-1,3-dihydro-indol-2-one], the 50% inhibitory concentration (IC50) amounted to 4910 nM.

These data come from patent US20030225152A1, “3-(Arylamino)methylene-1, 3-dihydro-2h-indol-2-ones as kinase inhibitors” (priority 2001, published 2003).
